Source: the supplement of paper PMC11208160

Experiment: recombinant barcode read abundance after kanamycin selection (control-corrected) (log10(CPM+1)); higher = more efficient recombination; sequences stand for … in AGTGCAGAGAAAATCGGCCAGTTTTCTCTGCCTGCAGTCCGCATGCCGT…ATTTATGCAGCGGACTGCCTTTCTCCCAAAGTGATAAACCGGACAGTATCATGGACCGGTTTTCCCGGTAATCCGTATTTGCAAGGTTGGTTTCACT; site = the 11-nt target
Outline: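 In a pooled screen in E. coli, targets were paired with target-binding loops of the IS621 bridge RNA. Each oligo carried a promoter, a target, a barcode and the first 104 bridge RNA bases driven by J23119, and was Gibson-cloned into a vector holding the remaining 73 bp and a T7-inducible recombinase before co-electroporation with a donor plasmid. Duplicate platings went onto chloramphenicol/ampicillin LB agar as the control or onto chloramphenicol/ampicillin/kanamycin with 0.1 mM IPTG. Recombination efficiency is the averaged, control-corrected count per million of barcodes at recombinant junctions, given as log10(CPM+1).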

Sequence	recombinant barcode read abundance (log10)
GGGAGCCCCTGGGTTCTAACCTGTTGCTGGG [GGGAGCCCTCA_LTGcore_CC_RTGcore_CC] (site GGGAGCCCTCA) (LTG core: CC, RTG core: CC)	0.0526
GGGAGCCCTTGGGTTCTAACCTGTTGCTGAC [GGGAGCCCTCA_LTGcore_CT_RTGcore_GT] (site GGGAGCCCTCA) (LTG core: CT, RTG core: GT)	1.06
GGGAGCCCTTGGGTTCTAACCTGTTGCTGGA [GGGAGCCCTCA_LTGcore_CT_RTGcore_TC] (site GGGAGCCCTCA) (LTG core: CT, RTG core: TC)	0.172
GGGAGCCCTTGGGTTCTAACCTGTTGCTGTA [GGGAGCCCTCA_LTGcore_CT_RTGcore_TA] (site GGGAGCCCTCA) (LTG core: CT, RTG core: TA)	0.029
GGGAGCCGTTGGGTTCTAACCTGTTGCTGAC [GGGAGCCCTCA_LTGcore_GT_RTGcore_GT] (site GGGAGCCCTCA) (LTG core: GT, RTG core: GT)	0.168
GGGAGCCGTTGGGTTCTAACCTGTTGCTGAG [GGGAGCCCTCA_LTGcore_GT_RTGcore_CT] (site GGGAGCCCTCA) (LTG core: GT, RTG core: CT)	0.186
GGGAGCCTCTGGGTTCTAACCTGTTGCTGAG [GGGAGCCCTCA_LTGcore_TC_RTGcore_CT] (site GGGAGCCCTCA) (LTG core: TC, RTG core: CT)	0.0348
GGGAGCCTCTGGGTTCTAACCTGTTGCTGGA [GGGAGCCCTCA_LTGcore_TC_RTGcore_TC] (site GGGAGCCCTCA) (LTG core: TC, RTG core: TC)	0.0883
GGGAGCCTTTGGGTTCTAACCTGTTGCTGAA [GGGAGCCCTCA_LTGcore_TT_RTGcore_TT] (site GGGAGCCCTCA) (LTG core: TT, RTG core: TT)	0.11
GGGCGGACTTGGGTTCTAACCTGTTGCGGAG [GGGCGGACTCC_LTGcore_CT_RTGcore_CT] (site GGGCGGACTCC) (LTG core: CT, RTG core: CT)	2.08
GGGCGGACTTGGGTTCTAACCTGTTGCGGCC [GGGCGGACTCC_LTGcore_CT_RTGcore_GG] (site GGGCGGACTCC) (LTG core: CT, RTG core: GG)	0.0677
GGGCGGACTTGGGTTCTAACCTGTTGCGGCG [GGGCGGACTCC_LTGcore_CT_RTGcore_CG] (site GGGCGGACTCC) (LTG core: CT, RTG core: CG)	0.232
GGGCGGACTTGGGTTCTAACCTGTTGCGGGG [GGGCGGACTCC_LTGcore_CT_RTGcore_CC] (site GGGCGGACTCC) (LTG core: CT, RTG core: CC)	0.212
GGGCGGACTTGGGTTCTAACCTGTTGCGGTA [GGGCGGACTCC_LTGcore_CT_RTGcore_TA] (site GGGCGGACTCC) (LTG core: CT, RTG core: TA)	0.0865
GGGCGGACTTGGGTTCTAACCTGTTGCGGTT [GGGCGGACTCC_LTGcore_CT_RTGcore_AA] (site GGGCGGACTCC) (LTG core: CT, RTG core: AA)	0.765
GGGCGGAGATGGGTTCTAACCTGTTGCGGTC [GGGCGGACTCC_LTGcore_GA_RTGcore_GA] (site GGGCGGACTCC) (LTG core: GA, RTG core: GA)	0.235
GGGCGGATCTGGGTTCTAACCTGTTGCGGAG [GGGCGGACTCC_LTGcore_TC_RTGcore_CT] (site GGGCGGACTCC) (LTG core: TC, RTG core: CT)	0.798
GGGCGGATTTGGGTTCTAACCTGTTGCGGAA [GGGCGGACTCC_LTGcore_TT_RTGcore_TT] (site GGGCGGACTCC) (LTG core: TT, RTG core: TT)	0.223
GGGCGGATTTGGGTTCTAACCTGTTGCGGAG [GGGCGGACTCC_LTGcore_TT_RTGcore_CT] (site GGGCGGACTCC) (LTG core: TT, RTG core: CT)	0.188
GGGCGTGAATGGGTTCTAACCTGTTGCCTAG [GGGCGTGCTAG_LTGcore_AA_RTGcore_CT] (site GGGCGTGCTAG) (LTG core: AA, RTG core: CT)	0.0426
GGGCGTGCCTGGGTTCTAACCTGTTGCCTGG [GGGCGTGCTAG_LTGcore_CC_RTGcore_CC] (site GGGCGTGCTAG) (LTG core: CC, RTG core: CC)	0.138
GGGCGTGCGTGGGTTCTAACCTGTTGCCTAG [GGGCGTGCTAG_LTGcore_CG_RTGcore_CT] (site GGGCGTGCTAG) (LTG core: CG, RTG core: CT)	0.0925
GGGCGTGCTTGGGTTCTAACCTGTTGCCTCC [GGGCGTGCTAG_LTGcore_CT_RTGcore_GG] (site GGGCGTGCTAG) (LTG core: CT, RTG core: GG)	1.53

Sequence	recombinant barcode read abundance (log10)
GGGCGTGCTTGGGTTCTAACCTGTTGCCTGC [GGGCGTGCTAG_LTGcore_CT_RTGcore_GC] (site GGGCGTGCTAG) (LTG core: CT, RTG core: GC)	0.847
GGGCGTGCTTGGGTTCTAACCTGTTGCCTTC [GGGCGTGCTAG_LTGcore_CT_RTGcore_GA] (site GGGCGTGCTAG) (LTG core: CT, RTG core: GA)	0.564
GGGCGTGTATGGGTTCTAACCTGTTGCCTAG [GGGCGTGCTAG_LTGcore_TA_RTGcore_CT] (site GGGCGTGCTAG) (LTG core: TA, RTG core: CT)	0
GGGCGTGTATGGGTTCTAACCTGTTGCCTTA [GGGCGTGCTAG_LTGcore_TA_RTGcore_TA] (site GGGCGTGCTAG) (LTG core: TA, RTG core: TA)	0.36
GGTGCCCCTTGGGTTCTAACCTGTTGCCGAC [GGTGCCCCTCG_LTGcore_CT_RTGcore_GT] (site GGTGCCCCTCG) (LTG core: CT, RTG core: GT)	0.297
GGTGCCCCTTGGGTTCTAACCTGTTGCCGTC [GGTGCCCCTCG_LTGcore_CT_RTGcore_GA] (site GGTGCCCCTCG) (LTG core: CT, RTG core: GA)	0.332
GGTGCCCGATGGGTTCTAACCTGTTGCCGTC [GGTGCCCCTCG_LTGcore_GA_RTGcore_GA] (site GGTGCCCCTCG) (LTG core: GA, RTG core: GA)	0.134
GGTGCCCTCTGGGTTCTAACCTGTTGCCGAG [GGTGCCCCTCG_LTGcore_TC_RTGcore_CT] (site GGTGCCCCTCG) (LTG core: TC, RTG core: CT)	0.0654
GTCGCCCAGTGGGTTCTAACCTGTTGCTAAG [GTCGCCCCTTA_LTGcore_AG_RTGcore_CT] (site GTCGCCCCTTA) (LTG core: AG, RTG core: CT)	0.139
GTCGCCCAGTGGGTTCTAACCTGTTGCTACT [GTCGCCCCTTA_LTGcore_AG_RTGcore_AG] (site GTCGCCCCTTA) (LTG core: AG, RTG core: AG)	0.283
GTCGCCCCATGGGTTCTAACCTGTTGCTATG [GTCGCCCCTTA_LTGcore_CA_RTGcore_CA] (site GTCGCCCCTTA) (LTG core: CA, RTG core: CA)	0.379
GTCGCCCCGTGGGTTCTAACCTGTTGCTAAG [GTCGCCCCTTA_LTGcore_CG_RTGcore_CT] (site GTCGCCCCTTA) (LTG core: CG, RTG core: CT)	0.325
GTCGCCCCTTGGGTTCTAACCTGTTGCTAGC [GTCGCCCCTTA_LTGcore_CT_RTGcore_GC] (site GTCGCCCCTTA) (LTG core: CT, RTG core: GC)	0.805
GTCGCCCGATGGGTTCTAACCTGTTGCTAAG [GTCGCCCCTTA_LTGcore_GA_RTGcore_CT] (site GTCGCCCCTTA) (LTG core: GA, RTG core: CT)	0
GTCGCCCGATGGGTTCTAACCTGTTGCTATC [GTCGCCCCTTA_LTGcore_GA_RTGcore_GA] (site GTCGCCCCTTA) (LTG core: GA, RTG core: GA)	0.103
GTCGCCCGGTGGGTTCTAACCTGTTGCTACC [GTCGCCCCTTA_LTGcore_GG_RTGcore_GG] (site GTCGCCCCTTA) (LTG core: GG, RTG core: GG)	0.458
GTCGCCCGTTGGGTTCTAACCTGTTGCTAAG [GTCGCCCCTTA_LTGcore_GT_RTGcore_CT] (site GTCGCCCCTTA) (LTG core: GT, RTG core: CT)	0.431
GTCGCCCTCTGGGTTCTAACCTGTTGCTAGA [GTCGCCCCTTA_LTGcore_TC_RTGcore_TC] (site GTCGCCCCTTA) (LTG core: TC, RTG core: TC)	0.236
TAAGAATAATGGGTTCTAACCTGTTGCCTTT [TAAGAATCTAG_LTGcore_AA_RTGcore_AA] (site TAAGAATCTAG) (LTG core: AA, RTG core: AA)	1.48
TAAGAATATTGGGTTCTAACCTGTTGCCTAT [TAAGAATCTAG_LTGcore_AT_RTGcore_AT] (site TAAGAATCTAG) (LTG core: AT, RTG core: AT)	0.141
TAAGAATCCTGGGTTCTAACCTGTTGCCTAG [TAAGAATCTAG_LTGcore_CC_RTGcore_CT] (site TAAGAATCTAG) (LTG core: CC, RTG core: CT)	0.193
TAAGAATCTTGGGTTCTAACCTGTTGCCTCG [TAAGAATCTAG_LTGcore_CT_RTGcore_CG] (site TAAGAATCTAG) (LTG core: CT, RTG core: CG)	1.61
